Earlier results, collected in US20050267091A1 (priority 2004, published 2005).

Assays:
[1] = in vivo
[2] = not given; remark: listed apart in the source

SMILES: CC(C)c1nc(N(C)S(C)(=O)=O)nc(-c2ccc(F)cc2)c1/C=C/[C@@H](O)C[C@@H](O)CC(=O)O [Crestor®, rosuvastatin]
- cases of serious side effects (cited by consumer advocacy group, March 2004): 16 cases

SMILES: COCc1c(C(C)C)nc(C(C)C)c(/C=C/[C@@H](O)C[C@@H](O)CC(=O)O)c1-c1ccc(F)cc1 [Baycol®, cervastatin]
- deaths linked to the drug (market withdrawal August 2001): 31 deaths

SMILES: O=C(O)c1cccnc1 [Niacin]
- increase of blood levels of HDL cholesterol [1]: up to 35%
- reduction of total cholesterol [1]: up to 15%
- reduction of triglyceride levels [1]: up to 30%
- patients affected by flushing (redness) of the face and neck ([2]; most common side effect): more than three quarters of patients
- patients who discontinue because of adverse effects ([2]; patients treated with standard niacin): more than 40%
